From patent publication US7776597B2, “Method of inducing embryonic stem cells into pancreatic cells” (Beijing Hua Yuan Bo Chuang Technology Limited, priority 2005, dated 2010)

B1: activin A: a member of TGF-β superfamily; disulfide-stabilized protein (protein, UniProt P08476 311-426, looked up)
Inhibin beta A chain: GLECDGKVNICCKKQFFVSFKDIGWNDWIIAPSGYHANYCEGECPSHIAGTSGSSLSFHSTVINHYRMRGHSPFANLKSCCVPTKLRPMSMLYYDDGQNIIKKDIQNMIVEECGCS

Columns and labels:
ES-R1 cells [1] = experiment: RT-PCR analysis of marker gene expression in differentiated mouse ES cells; type: cell-based, mice; settings: end of step 2
Description: (§1) Step 1, to induce embryonic body (EB) formation, ES cells were dissociated with trypsin and suspended into Petri dishes (Alpha medical instrument) with 10% FBS/DMEM without LIF. After 24 to 48 hours (See FIG. 1B), EBs were collected and re-plated into 10% FBS/DMEM without LIF in 1% Matrigel (BD Biosciences) coated dishes. Two hours later, EBs began to spread onto the dishes and were cultured in 10% FBS/DMEM with 100 ng/ml activin A (Sigma) for 24 hours. Then EBs were switched to 10% FBS/DMEM for 6-8 hours as an interval. After this interval, the differentiated EB cells were cultured in 10% FBS/DMEM with 10^−6 M RA (Sigma) for another 24 hours.
(§2) Step 3, to mature the insulin producing cells, the expanded cells in step 2 were switched to DMEM/F12 (Gibco-BRL) with N2 supplement (1:100, Gibco-BRL), B27 supplement (1:50 Gibco-BRL), 1 μg/ml Laminin (Sigma), 10 ng/ml bFGF (Sigma) and 10 mM nicotinamide (Sigma) and cultured for 3-5 days (Lumelsky N, Blondel O, Laeng P, et al. Differentiation of embryonic stem cells to insulin-secreting structures similar to pancreatic islets. Science 2001; 292:1389-1394.) The morphology of cells was observed under a Nikon phase-contrast microscope (TS-100).
Total RNA was extracted by Catrimox-14 kit (TaKaRa) from the cells in step 2 or step 3 which were induced by both with and without activin A and RA or with only one of them. […]

ES-R1 cells [2] = experiment: Cell cluster formation on coated dishes during three-step induction; type: cell-based, mice; settings: dish coating matrix, third step of induction
Description: as §1, §2

Molecule | marker genes expressed (RT-PCR) (ES-R1 cells [1]) | cell cluster formation (ES-R1 cells [2])
CC1=C(/C=C/C(C)=C/C=C/C(C)=C/C(=O)O)C(C)(C)CCC1 [RA, All-trans retinoic acid] | express only hnf3β | 
laminin |  | no cell clusters formed
B1 | mainly express hnf3β and pdx-1 | 
